In patent EP0414931B1, “Hypotensive agent” (TANABE SEIYAKU CO., LTD., priority 1989, dated 1991):
Marks after values point to notes of the source that are not given here.

Key:
SHR [1] = test: Hypotensive activity in SHR by single administration of test compound (tail-cuff method); type: in vivo, rats; settings: SHR about 40 weeks old, fasted overnight; for rate of change of the blood pressure: 200 mg/kg orally, single dose, 2 hours after administration against before administration; for decrease of the systolic blood pressure: 200 mg/kg orally once, 2 hours after administration in comparison with before administration
Experimental: The phenoxyacetic acid derivatives (I) and pharmaceutically acceptable salts thereof, which are the active ingredient for use in the preparation of the hypotensive agent have an excellent hypotensive activity.
A suspension of a test compound in water containing a small amount of Tween 80 was administered orally in a volume of 1 ml/100 g of rat's weight (a dose of the test compound: 200 mg/kg) to SHR (about 40 weeks old, 4 to 6 rats/group) fasted overnight. The blood pressure before and after administration of the test compound were measured noninvasively by the tail-cuff method, and estimated the rate of the change of the blood pressure 2 hours after administration of the test compound against the blood pressure before administration of the test compound. In both of test compound No. (1) and No. (2), the rate of change of the blood pressure was about -13 %.

DOCA-salt rats = test: Antihypertensive activity on progressive hypertension in DOCA-salt rats (tail-cuff method); type: in vivo, male SD rats; settings: for Systolic blood pressure: 50 mg/kg/day orally once a day for 4 weeks
Experimental: (§1) A left kidney was taken out from male SD rats (6 weeks old, weight; about 200 g, 10 rats/group), and 1 week later, silicon resin containing 150 mg/kg of deoxycorticosterone acetic acid (DOCA) was embedded in subcutaneous tissue at the back of each rat under ether anesthesia. After operation, the rats were provided with water containing 1 % sodium chloride and 0.2 % potassium chloride as drinking water in order to produce DOCA-salt rats. From the next day after operation of embedding the silicon resin containing DOCA, a suspension of the test compound (I) in water containing a small amount of Tween 80 was administered orally in a volume of 10 ml/kg (a dose of the test compound: 50 mg/kg/day) once a day for 4 weeks in the test compound-administered group. On the other hand, the same amount of water containing a small amount of the Tween 80 was administered in the control group instead of the suspension of the test compound (1). The systolic blood pressure of rats in the both groups was measured once a week until the fourth week by the tail-cuff method.

SHR [2] = test: Antihypertensive activity in SHR, repeated administration (tail-cuff method); type: in vivo, rats; settings: for Systolic blood pressure: SHR 5 weeks old
Experimental: (§2) A suspension of the test compound (1) in water containing a small amount of Tween 80 was administered orally in a volume of 10 ml/kg (a dose of the test compound: 100 mg/kg/day) once a day for 4 weeks to SHR (5 weeks old, weight; about 100 g, 10 rats/group) in the test compound-administered group. On the other hand, the same amount of water containing a small amount of Tween 80 was administered to the rats in control group instead of the suspension of the test compound (1). The systolic blood pressure of rats of the both groups was measured once a week until the fifth week by the tail-cuff method.

established-SHR = test: Antihypertensive activity in SHR in the established hypertension condition (tail-cuff method); type: in vivo, rats; settings: for Systolic blood pressure: 100 mg/kg/day orally once a day for 3 weeks, established-SHR 18 weeks old
Experimental: as §2
Using the SHR being in the established hypertension (established-SHR, 18 weeks old, weight; 300 to 375 g, 8 rats/group), the same procedures were carried out as Experiment 3 except that the period of administration of the test compound (1) was 3 weeks, and the systolic blood pressure was measured until the third week after administration.

[3] = system: established DOCA-salt hypertensive rats; test: Antihypertensive activity in DOCA-salt rats in the established hypertension condition (tail-cuff method); type: in vivo
Experimental: as §1, §2
The DOCA-salt loaded rats being in the stable hypertensive condition were obtained by feeding the DOCA-salt loaded rats used in Experiment 2 with tap water instead of aqueous salt solution for 6 weeks. Using these established DOCA-salt hypertensive rats (8 rats/group), the same experiments were carried out as Experiment 3 except that the dose of the test compound (1) was 50 mg/kg/day, the period of administration was 3 weeks, and the systolic blood pressure was measured until the fourth week after administration.

CCn1nccc1C(=O)c1ccc(OCC(=O)O)c(Cl)c1Cl [(1), [2,3-dichloro-4-(1-ethyl-5-pyrazolylcarbonyl)phenoxy]acetic acid]
rate of change of the blood pressure (SHR [1]): about -13% | increase of blood pressure as compared with control group (DOCA-salt rats; 50 mg/kg/day orally for 4 weeks, result in words): inhibited significantly from the second week after administration | Systolic blood pressure (DOCA-salt rats; day 0): 121.6 mmHg | Systolic blood pressure (DOCA-salt rats; day 7): 140.3 mmHg | Systolic blood pressure (DOCA-salt rats; day 14): 165.0* mmHg | Systolic blood pressure (DOCA-salt rats; day 21): 182.0* mmHg | Systolic blood pressure (DOCA-salt rats; day 28): 193.3* mmHg | increase of blood pressure as compared with control group (SHR [2]; 100 mg/kg/day orally for 4 weeks, result in words): inhibited significantly from the first week after administration | Systolic blood pressure (SHR [2]; day 0, 100 mg/kg/day orally once a day for 4 weeks): 131.2 mmHg | Systolic blood pressure (SHR [2]; day 7, 100 mg/kg/day orally once a day for 4 weeks): 141.0** mmHg | Systolic blood pressure (SHR [2]; day 14, 100 mg/kg/day orally once a day for 4 weeks): 161.9** mmHg | Systolic blood pressure (SHR [2]; day 21, 100 mg/kg/day orally once a day for 4 weeks): 175.4** mmHg | Systolic blood pressure (SHR [2]; day 28, 100 mg/kg/day orally once a day for 4 weeks): 185.2** mmHg | Systolic blood pressure (SHR [2]; day 35 (one week after the 4-week dosing), 100 mg/kg/day orally): 198.4** mmHg | blood pressure in comparison with control group (established-SHR; 100 mg/kg/day orally for 3 weeks, result in words): decreased significantly from the first week after administration | Systolic blood pressure (established-SHR; day 0): 207.3 mmHg | Systolic blood pressure (established-SHR; day 7): 189.6* mmHg | Systolic blood pressure (established-SHR; day 14): 201.8* mmHg | Systolic blood pressure (established-SHR; day 21): 198.6* mmHg | blood pressure in comparison with control group ([3]; 50 mg/kg/day orally for 3 weeks, result in words): decreased significantly from the second week after administration | Systolic blood pressure ([3]; day 0, 50 mg/kg/day orally once a day for 3 weeks): 171.1 mmHg | Systolic blood pressure ([3]; day 7, 50 mg/kg/day orally once a day for 3 weeks): 167.4 mmHg | Systolic blood pressure ([3]; day 14, 50 mg/kg/day orally once a day for 3 weeks): 168.1* mmHg | Systolic blood pressure ([3]; day 28 (one week after the 3-week dosing), 50 mg/kg/day orally): 170.7* mmHg

CCOCn1nccc1C(=O)c1ccc(OCC(=O)O)c(Cl)c1Cl [(2), [2,3-dichloro-4-(1-ethoxymethyl-5-pyrazolylcarbonyl)phenoxy]acetic acid]
rate of change of the blood pressure (SHR [1]): about -13%

CCn1nccc1C(=O)c1ccc(OCC(=O)O)c(Cl)c1Cl [[2,3-dichloro-4(1-ethyl-5-pyrazolylcarbonyl)phenoxy]acetic acid]
decrease of the systolic blood pressure (SHR [1]): about 13%

CCOCn1nccc1C(=O)c1ccc(OCC(=O)O)c(Cl)c1Cl [[2,3-dichloro-4-(1-ethoxymethyl-5-pyrazolylcarbonyl)phenoxy]acetic acid]
decrease of the systolic blood pressure (SHR [1]): about 13%
